Drawing on PubChem BioAssay AID328 (DTP/NCI, 2004), this text covers T/C for 24 compounds.

For the assay, the system named is BDF1 mice, P388 leukemia ip, median survival T/C. The assay can be described thus: NCI In Vivo Anticancer Drug Screen. Data for tumor model P388 Leukemia (intraperitoneal) in B6D2F1 (BDF1) mice. The note with it: endpoint: median survival time, higher = longer survival. The procedure, abridged: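 Steps: implant the tumour, treat one group with compound and another with vehicle, record survival, then divide treated by control.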

[1] abbreviates: dose: 100.0 mg/kg/injection, schedule: Q04DX003 (ip), vehicle: saline with Tween-80.
The mark [2] stands for this setting: dose: 200.0 mg/kg/injection, schedule: Q04DX003 (ip), vehicle: saline with Tween-80.
Setting [3] is: dose: 400.0 mg/kg/injection, schedule: Q04DX003 (ip), vehicle: saline with Tween-80.
[4] abbreviates: dose: 100.0 mg/kg/injection, schedule: Q01DX009 (ip), vehicle: Klucel (hydroxypropylcellulose) (HPC).
The mark [5] stands for this setting: dose: 50.0 mg/kg/injection, schedule: Q04DX003 (ip), vehicle: saline with Tween-80.
Setting [6] is: dose: 400.0 mg/kg/injection, schedule: Q01DX009 (ip), vehicle: saline with Tween-80.
Setting [7] is: dose: 50.0 mg/kg/injection, schedule: Q01DX009 (ip), vehicle: saline with Tween-80.
[8] abbreviates: dose: 100.0 mg/kg/injection, schedule: Q01DX009 (ip), vehicle: saline with Tween-80.
Setting [9] is: dose: 200.0 mg/kg/injection, schedule: Q01DX009 (ip), vehicle: saline with Tween-80.
Where [10] appears, read: dose: 100.0 mg/kg/injection, schedule: Q04DX003 (ip), vehicle: saline.
Where [11] appears, read: dose: 200.0 mg/kg/injection, schedule: Q04DX003 (ip), vehicle: saline.
Setting [12] is: dose: 400.0 mg/kg/injection, schedule: Q04DX003 (ip), vehicle: saline.
Setting [13] is: dose: 50.0 mg/kg/injection, schedule: Q01DX009 (ip), vehicle: saline.
[14] abbreviates: dose: 100.0 mg/kg/injection, schedule: Q01DX009 (ip), vehicle: saline.
Where [15] appears, read: dose: 0.39 mg/kg/injection, schedule: Q01DX009 (ip), vehicle: saline.
[16] abbreviates: dose: 0.78 mg/kg/injection, schedule: Q01DX009 (ip), vehicle: saline.
Setting [17] is: dose: 1.56 mg/kg/injection, schedule: Q01DX009 (ip), vehicle: saline.
Setting [18] is: dose: 0.19 mg/kg/injection, schedule: Q01DX009 (ip), vehicle: saline.
Where [19] appears, read: dose: 50.0 mg/kg/injection, schedule: Q04DX003 (ip), vehicle: saline.

Molecules are shown by their SMILES. Several values for one entry are separate records, joined by “and”; a condition that tells them apart may be missing. Identical values can stand only once. Inconclusive results and toxic doses are left out.

For the compound `CCC(c1ccc(OC)cc1)C(NCC(=O)N/N=C/c1ccccc1[N+](=O)[O-])c1ccc(OC)cc1` (stereo not drawn), the T/C (dose: 12.5 mg/kg/injection, schedule: Q01DX001 (ip), vehicle: saline with Tween-80) was 91 % of control.
On to `C/C=C/C=C/NC(=O)Oc1ccccc1`, for which the T/C runs as follows: under setting [1], 91 % of control; under setting [2], 94 % of control; under setting [3], 116 % of control.
For `Cc1noc(-c2ccc([N+](=O)[O-])o2)n1`, the T/C is 93 % of control (dose: 50.0 mg/kg/injection, schedule: Q01DX009 (ip), vehicle: Klucel (hydroxypropylcellulose) (HPC)) and 101 % of control under setting [4].
As for `O=C(Nc1ccc(NC(=O)c2ccc(C3=NCCCN3)cc2)cc1)c1ccc(C2=NCCCN2)cc1`, the T/C is 159 % of control (dose: 33.0 mg/kg/injection, schedule: Q04DX003 (ip), vehicle: saline with Tween-80); 153 % of control and 181 % of control under setting [5]; 168 % of control and 207 % of control (dose: 75.0 mg/kg/injection, schedule: Q04DX003 (ip), vehicle: saline with Tween-80).
For the compound `CC(C)(O)c1ccccc1S(=O)(=O)c1ccccc1C(C)(C)O`, the T/C reads like this: (dose: 100.0 mg/kg/injection, schedule: Q04DX002 (ip), vehicle: saline with Tween-80) 94 % of control; (dose: 200.0 mg/kg/injection, schedule: Q04DX002 (ip), vehicle: saline with Tween-80) 93 % of control; (dose: 400.0 mg/kg/injection, schedule: Q04DX002 (ip), vehicle: saline with Tween-80) 89 % of control.
For the compound `Nc1ccc(OC(=O)Oc2ccc(N)cc2)cc1`, the T/C (dose: 264.0 mg/kg/injection, schedule: Q01DX009 (ip), vehicle: saline with Tween-80) is 100 % of control and the T/C under setting [6] was 104 % of control.
With `N#Cc1cccc(O)c1`, the T/C under setting [7] is 104 % of control, the T/C under setting [8] is 100 % of control and the T/C under setting [9] was 109 % of control.
Consider `CSc1cccc(NC(=O)Oc2cc(C)c(Cl)c(C)c2Cl)c1`, for which the T/C was 117 % of control (dose: 6.25 mg/kg/injection, schedule: Q01DX009 (ip), vehicle: DMSO) and 102 % of control (dose: 12.5 mg/kg/injection, schedule: Q01DX009 (ip), vehicle: DMSO).
In the case of `C[n+]1c2cc(N)ccc2cc2ccc(N)cc21`, the T/C runs as follows: (dose: 8.0 mg/kg/injection, schedule: Q01DX009 (ip), vehicle: saline) 152 % of control; (dose: 12.0 mg/kg/injection, schedule: Q01DX009 (ip), vehicle: saline) 167 % of control.
In the case of `CC#CC(=O)SCCNC(=O)CC`, the T/C is, setting by setting: (dose: 12.5 mg/kg/injection, schedule: Q04DX003 (ip), vehicle: saline with Tween-80) 100 % of control; (dose: 25.0 mg/kg/injection, schedule: Q04DX003 (ip), vehicle: saline with Tween-80) 104 % of control; under setting [5], 95 % of control and 100 % of control.
Consider `CC(=O)OC1CCC2(C)CCCC(O)C2(O)C1` (stereo not drawn), for which the T/C was 103 % of control under setting [8]; 110 % of control under setting [10]; 90 % of control under setting [11]; 103 % of control under setting [6]; 110 % of control under setting [12].
Consider `Cc1cccc(NC(=O)Nc2ccc(Oc3ccccc3Cl)c(S(=O)(=O)O)c2)c1`, for which the T/C runs as follows: (dose: 25.0 mg/kg/injection, schedule: Q01DX009 (ip), vehicle: saline) 90 % of control; under setting [13], 90 % of control; under setting [14], 90 % of control.
Consider `NC1=C(Cl)C(=O)C(Cl)=C(Cl)C1=O`, for which the T/C is 102 % of control under setting [15], 98 % of control under setting [16] and 99 % of control under setting [17].
For `CCSc1nc(C=O)c(Cc2ccc(Br)cc2)c(=O)[nH]1`, the T/C reads like this: under setting [1], 109 % of control; under setting [2], 122 % of control; under setting [3], 150 % of control.
Turning to `Cc1c(CNc2ccc(C(=O)NC(CC(=O)O)CC(=O)O)cc2)ccc2nc(N)nc(N)c12`, the T/C is, setting by setting: under setting [18], 165 % of control; (dose: 0.37 mg/kg/injection, schedule: Q01DX009 (ip), vehicle: saline) 215 % of control; (dose: 0.75 mg/kg/injection, schedule: Q01DX009 (ip), vehicle: saline) 100 % of control; (dose: 1.5 mg/kg/injection, schedule: Q01DX009 (ip), vehicle: saline) 95 % of control; (dose: 2.0 mg/kg/injection, schedule: Q01DX009 (ip), vehicle: saline) 110 % of control.
Take `NC(=S)N/N=C\c1nccc2c(N)cccc12`: the T/C is 186 % of control (dose: 6.25 mg/kg/injection, schedule: Q01DX009 (ip), vehicle: saline with Tween-80); 191 % of control (dose: 12.5 mg/kg/injection, schedule: Q01DX009 (ip), vehicle: saline with Tween-80); 195 % of control (dose: 25.0 mg/kg/injection, schedule: Q01DX009 (ip), vehicle: saline with Tween-80); 91 % of control under setting [7]; 89 % of control (dose: 75.0 mg/kg/injection, schedule: Q01DX009 (ip), vehicle: saline with Tween-80).
For the compound `CC[C@@]1(O)C[C@H](OC2CC(N(C)C)C(OC3CC4OC5CC(=O)C(C)OC5OC4C(C)O3)C(C)O2)c2c(cc3c(c2O)C(=O)c2c(O)cccc2C3=O)[C@H]1C(=O)OC` (stereo partly drawn), the T/C was 109 % of control (dose: 0.25 mg/kg/injection, schedule: Q01DX009 (ip), vehicle: water) and 86 % of control (dose: 4.0 mg/kg/injection, schedule: Q01DX009 (ip), vehicle: water).
Consider `COc1cc(OC)c(Br)c(OC)c1`, for which the T/C under setting [4] was 100 % of control; the T/C (dose: 100.0 mg/kg/injection, schedule: Q04DX003 (ip), vehicle: Klucel (hydroxypropylcellulose) (HPC)) is 112 % of control; the T/C (dose: 200.0 mg/kg/injection, schedule: Q01DX009 (ip), vehicle: Klucel (hydroxypropylcellulose) (HPC)) was 100 % of control; the T/C (dose: 200.0 mg/kg/injection, schedule: Q04DX003 (ip), vehicle: Klucel (hydroxypropylcellulose) (HPC)) was 104 % of control; the T/C (dose: 400.0 mg/kg/injection, schedule: Q01DX009 (ip), vehicle: Klucel (hydroxypropylcellulose) (HPC)) was 116 % of control; the T/C (dose: 400.0 mg/kg/injection, schedule: Q04DX003 (ip), vehicle: Klucel (hydroxypropylcellulose) (HPC)) was 100 % of control.
In the case of `O=C1C(N2CCOCC2)=Cc2cccc3cccc1c23`, the T/C was 99 % of control under setting [5]; 101 % of control under setting [8]; 96 % of control under setting [1]; 90 % of control under setting [9]; 88 % of control under setting [2]; 99 % of control under setting [3].
Turning to `C=CCSc1ncnc2c1ncn2C1OC(CO)C(O)C1O` (stereo not drawn), the T/C under setting [8] is 113 % of control.
Consider `CN(C)N=Nc1ccccc1[N+](=O)[O-]`, for which the T/C is 107 % of control (dose: 25.0 mg/kg/injection, schedule: Q01DX009 (ip), vehicle: Klucel (hydroxypropylcellulose) (HPC)) and 92 % of control under setting [4].
With `COc1ccc(CNCCO)cc1`, the T/C was 108 % of control under setting [19]; 109 % of control under setting [14]; 100 % of control and 116 % of control under setting [10]; 90 % of control (dose: 200.0 mg/kg/injection, schedule: Q01DX009 (ip), vehicle: saline); 91 % of control under setting [11]; 111 % of control (dose: 400.0 mg/kg/injection, schedule: Q01DX009 (ip), vehicle: saline). Also, under setting [12], the T/C is 91 % of control and 95 % of control.
In the case of `C=C(C)[C@@]12O[C@@]3(CCCCCCCCC)O[C@@H]1[C@@H]1[C@@H]4O[C@]4(CO)[C@@H](O)[C@]4(O)C(=O)C(C)=CC4[C@@]1(O3)[C@H](C)[C@H]2OC(=O)c1ccccc1` (stereo partly drawn), for the setting “dose: 400.0 micrograms/kg/injection, schedule: Q01DX009 (ip), vehicle: saline + alcohol”, the T/C was 174 % of control.
For `O=C(O)C1CCSS1` (stereo not drawn), the T/C is 100 % of control under setting [18]; 91 % of control under setting [15]; 90 % of control and 117 % of control under setting [16]; 96 % of control and 99 % of control under setting [17]; 94 % of control (dose: 3.12 mg/kg/injection, schedule: Q01DX009 (ip), vehicle: saline); 94 % of control (dose: 6.25 mg/kg/injection, schedule: Q01DX009 (ip), vehicle: saline). Further, the T/C by setting is: (dose: 12.5 mg/kg/injection, schedule: Q01DX009 (ip), vehicle: saline) 102 % of control and 106 % of control and 108 % of control; under setting [13], 87 % of control and 89 % of control; under setting [19], 103 % of control; under setting [10], 101 % of control.
